Earlier results on one compound are cited in patent US20240390277A1, “LIQUID FORMULATIONS OF TRAZODONE” (Rubicon Research Private Limited, priority 2023, published 2024).

For the data set the following is noted: humans.

In the case of `O=c1n(CCCN2CCN(c3cccc(Cl)c3)CC2)nc2ccccn12` [Trazodone], the Volume of distribution is 1.2 L/kg.
